Experimental data: patent US6864086B2, “Nitric oxide-scavenging system for culturing oocytes, embryos, or other cells” (Board of Supervisors of Louisiana State University and …, priority 1998, dated 2005)
Where “and” joins values, the source holds several entries; their conditions need not be identical. Identical values can stand only once.

What was measured:
[1] = tested on: bovine embryos co-cultured with granulosa cells; assay: Example 4: Hb (1 or 10 μg/ml) added to mBECM-C, embryos co-cultured with granulosa cells; type: cell-based
Protocol: mBECM containing 10 μM β-mercaptoethanol was used to culture embryos, as described in J. Lim et al., “Roles of growth factors in the development of bovine embryos fertilized in vitro and cultured singly in a defined medium,” Reprod. Fertil. Dev., 8, 1199-1205 (1996). To culture individual 8-cell embryos we used mBECM supplemented with 1 ng/ml platelet derived growth factor type AB (PDGF; Upstate Biotechnology Inc., Lake Placid, N.Y.), 1 ng/ml transforming growth factor-β (TGF; R & D System, Minneapolis, Minn.), 50 ng/ml arachidonic acid (AA; Cayman Chemical Co., Ann Arbor, Mich.), 100 μM glutathione (GSH; Sigma Co.) and 1 mg/ml polyvinyl alcohol (PVA) (mBECM-S). mBECM to which 10% (v/v) FBS was added (mBECM-C) was used for co-culturing inseminated zygotes with CGs and for producing 8-cell embryos. Osmolarity of the medium was maintained within the range of 265-290 mOsm.
The bovine cumulus-oocyte complexes (COCs) used were collected in Madison, Wis. (BOMED, Inc.), and were shipped in 2-ml of maturation medium in a battery powered incubator via overnight express mail service. Oocytes matured during transit and arrived within 24 h after exposure to maturation medium, pre-equilibrated at 39° C. in 5% CO2 in air. At 22-24 h after exposure to the medium, the COCs were inseminated in vitro as described in J. Lim et al., “Intracytoplasmic glutathione concentration and the role of β-mercaptoethanol in preimplantation development of bovine embryos,” Theriogenology, 46, 429-439 (1996). At 18 h post-insemination, COCs were cultured in groups (30-35 embryos) in a 4-well multidish (Nunc, Roskilde, Denmark) containing 0.8-ml of mBECM-C. Embryos were dislodged from CGs at 36-48 h post-insemination.
In Example 1, embryos (83-85 per group) collected 18 h post-insemination were cultured in mBECM-C, to which 0, 0.008, or 0.04 mM SNP was added at 18 or 60 h post-insemination. In Example 2, 8-cell embryos (80 per group) were produced in a co-culture system containing CGs and mBECM-C, and then beginning at 60 h post-insemination were cultured singly in a defined culture medium (mBECM-S), to which 0, 0.0016, 0.008, or 0.04 mM of SNP (S-0501, Sigma Co.) was added. In Example 3 embryos, either uncleaved (n=99) or developed to the 2-cell stage (90), were collected 48 h post-insemination; and cleaved embryos, either developed to the morula stage (69) or degenerate (63) were collected 144 h post-insemination. NO metabolites were then measured in the embryos. In Example 4, three groups of 95 zygotes each were co-cultured with CGs in mBECM-C, to which 0, 1, or 10 μg/ml Hb (bovine, mainly methemoglobin, H-2500, Sigma Co.) was added. […] Inseminated oocytes (104 per group) were co-cultured with CGs in MBECM-C up to 192 h post-insemination; and Hb (1 μg/ml) was added to the medium at 18, 60, or 144 h post-insemination. In Example 6, inseminated oocytes (93 per group) were cultured in the presence or absence of CGs in mBECM-C to which either 0 or 1 μg/ml Hb was added. In Example 7, 8-cell embryos (100 per group), obtained after culture in mBECM-C supplemented with Hb (1 μg/ml), were cultured singly in mBECM-S, with or without Hb.
Oocytes or 8-cell embryos were randomly and equally allocated to each treatment group. In Examples 1, 2, and 4-7, oocytes or embryos that had developed to the 2-cell, 8-cell, >8-cell, 16-cell morula, and blastocyst stages were individually scored ‘1’ (developed) at 48, 60, 96, 120, 144 and 192 h post-insemination, respectively. […] Sums of the scores in each stage of development were evaluated by analysis of variance (ANOVA) using the general linear model (PROC-GLM) in the SAS program software. In Example 3, concentrations of NO metabolites in embryos were subjected to ANOVA. […] Differences were regarded as statistically significant where P values were less than 0.05.

bovine blastocysts = assay: Example 8 supplemental: blastocyst cell number by Hoechst 33342 stain; type: cell-based; conditions: 8 days after insemination; Hb 1 μg/ml added to culture medium; vs. 124.2±8.4
Protocol: In Example 8, bovine follicular oocytes were collected from November 1996 to May 1997, and matured and fertilized in culture. (Oocytes collected during summer and early fall were not used in this study, to avoid interference from environmental heat stress on in vitro survival of embryos.) IVF embryos were collected at 18 h post-insemination and cultured in mBECM supplemented with FBS (10%, v/v), to which 0 or 1 μg/ml Hb (from bovine, mainly methemoglobin, H-2500, Sigma Co.) was added. Development of embryos to the 2-cell, 8-cell, 16-cell, morula, and blastocyst stages was monitored 48, 60, 120, 144 and 192 h post-insemination, respectively. As a supplemental experiment, some blastocysts in each treatment (20 or 28) were randomly collected, and the cell number of the blastocysts was counted by use of Hoechst stain 33342 and a fluorescent microscope (Diaphod, Nikkon, Tokyo, Japan). This experiment used 1675 embryos in 25 replicates, with IVF embryos randomly allotted among treatments.

hemoglobin [Hb]
Percent of Embryos Developed to 2-cell ([1]; Hb 1 μg/ml in mBECM-C): 81%
Percent of Embryos Developed to 16-cell ([1]; Hb 1 μg/ml in mBECM-C): 52%
Percent of Embryos Developed to >8-cell ([1]; Hb 1 μg/ml in mBECM-C): 60%
Percent of Embryos Developed to Blastocyst ([1]; Hb 1 μg/ml in mBECM-C): 34% and 34^b %
Percent of Embryos Developed to Morula ([1]; Hb 1 μg/ml in mBECM-C): 46%
Percent of Embryos Developed to 2-cell ([1]; Hb 10 μg/ml in mBECM-C): 78%
Percent of Embryos Developed to 16-cell ([1]; Hb 10 μg/ml in mBECM-C): 43%
Percent of Embryos Developed to >8-cell ([1]; Hb 10 μg/ml in mBECM-C): 53%
Percent of Embryos Developed to Blastocyst ([1]; Hb 10 μg/ml in mBECM-C): 27% and 27^ab %
Percent of Embryos Developed to Morula ([1]; Hb 10 μg/ml in mBECM-C): 41%
number of blastocyst cells (bovine blastocysts): 128.6±7.1
